# How the values were obtained:
# L3.6pl cells = test: Human orthotopic pancreatic cancer model, L3.6pl cells in nude mice, treatment from day 7; format: in vivo, mouse; conditions: nude mice
# In short: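 L3.6pl pancreatic carcinoma cells (passage 24-26) were injected orthotopically into the pancreas of male nude mice. From day 7, groups of 15 received i.p. human v6 peptide or rat control peptide (20 μg, 14mer or 5mer), three times weekly for 21 days. Animals were killed two days after the last dose; tumors were analyzed by P-Met, Met, CD31 and caspase immunostaining.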
# CD44v6 [1] = target: T1, CD44v6 (Homo sapiens, UniProt P16070); test: Peptide blocking of EGF/TGFα-induced Erk phosphorylation in MCF7 cells (Western blot); format: cell-based; conditions: peptide 100 ng/ml; for EGF-induced activation of the ErbB receptors (Erk phosphorylation): MCF7, serum-starved, EGF 20 ng/ml
# T1 construct: endogenous in cells; host or cells: MCF7; MCF10A
# Protocol: (§1) 3×10^5 were seeded per well of a 6-well plate and serum-starved for 24 hours. Afterwards the medium inside of each well was reduced to 1 ml and the respective peptide (v6 (both peptides of SEQ ID No.: 2 and 6 were tested), or ctrl peptide) was added at a concentration of 100 ng/ml. The cells then were incubated together with the peptide at 37° C. for 5 mins. Ligand concentration for all peptide blocking experiments was 20 ng/ml.
# (§2) To assay protein expression via Western blot cells were washed 1× with PBS and afterwards lysed in 2×Laemmli sample buffer (160 mM Tris-HCl pH 6.8, 4% SDS, 16% glycerol, 0.1M DTT, 0.01% bromphenol blue). The sample was sheared through a 26 gauge needle. In succession the lysates were boiled for 5 mins at 99° C. in order to denature the proteins in the sample and then spun down at 10 000 rmp for 1 min Eventually the samples were loaded onto an SDS-PAGE gel.
# (§3) To test whether CD44v6 acts as a co-receptor in MCF7 or MCF10A cells, a peptide blocking experiment using peptides of SEQ ID NO: 6 was conducted. The cells were serum-starved for 24 h and then pre-incubated with a v6 peptide or an unspecific control peptide. Then, the cells were induced with EGF or HGF as a control. As a read-out for ErbB-activation, the phosphorylation of the Erk-kinase was used.
# CD44v6 [2] = target: T1, CD44v6; test: Peptide blocking of EGF-induced Erk phosphorylation in MCF10A cells (Western blot); format: cell-based; conditions: MCF10 cells, serum-starved; peptide 100 ng/ml; EGF 20 ng/ml
# Protocol: as §1, §2, §3
# CD44v6 [3] = test: HGF-induced activation of Met and Erk in HeLa cells (Western blot); format: cell-based, human
# Protocol: FIG. 28: A: Activation of Met and signal transduction induced by HGF depends on CD44v6 in L3.6pl cells. L3.6pl cells were treated with the human v6 peptide (human v6 14mer) or the rat v6 peptide as control prior to induction with 10 ng/ml HGF. Activation of Met and ERK was determined in western blot. The numbers refer to the fold induction. The experiment was repeated at least 5 times. B: Activation of c-Met and signal transduction induced by HGF depends on CD44v6 HeLa cells. Starved HeLa cells respectively HT29 cells were incubated with the v6 peptide (human v6 14mer) or a control peptide for 10 minutes at 37° C. and then induced with 25 ng/ml of HGF for the indicated time points. Cells were then either lysed and the lysates were subjected to Western Blot analysis for phospho-Met and Met. C: Activation of c-Met and signal transduction induced by HGF depends on CD44v6 in HT29 cells. HGF-induced c-Met and Erk phosphorylation in HT29 was determined as described above using phospho-specific antibodies. […]
# The contribution of CD44v6 to Met signaling in the human epithelial pancreatic cancer cells L3.6pl (derived from Colo 357), the cervix carcinoma cells HeLa and the colon cancer cells HT29 were analysed using the CD44v6 peptide (v6 14mer; v6 5mer tested as well, data not shown).
# [4] = orthotopic L3.6pl, 20 μg i.p. three times per week
# T1 sequence (P16070 21-742): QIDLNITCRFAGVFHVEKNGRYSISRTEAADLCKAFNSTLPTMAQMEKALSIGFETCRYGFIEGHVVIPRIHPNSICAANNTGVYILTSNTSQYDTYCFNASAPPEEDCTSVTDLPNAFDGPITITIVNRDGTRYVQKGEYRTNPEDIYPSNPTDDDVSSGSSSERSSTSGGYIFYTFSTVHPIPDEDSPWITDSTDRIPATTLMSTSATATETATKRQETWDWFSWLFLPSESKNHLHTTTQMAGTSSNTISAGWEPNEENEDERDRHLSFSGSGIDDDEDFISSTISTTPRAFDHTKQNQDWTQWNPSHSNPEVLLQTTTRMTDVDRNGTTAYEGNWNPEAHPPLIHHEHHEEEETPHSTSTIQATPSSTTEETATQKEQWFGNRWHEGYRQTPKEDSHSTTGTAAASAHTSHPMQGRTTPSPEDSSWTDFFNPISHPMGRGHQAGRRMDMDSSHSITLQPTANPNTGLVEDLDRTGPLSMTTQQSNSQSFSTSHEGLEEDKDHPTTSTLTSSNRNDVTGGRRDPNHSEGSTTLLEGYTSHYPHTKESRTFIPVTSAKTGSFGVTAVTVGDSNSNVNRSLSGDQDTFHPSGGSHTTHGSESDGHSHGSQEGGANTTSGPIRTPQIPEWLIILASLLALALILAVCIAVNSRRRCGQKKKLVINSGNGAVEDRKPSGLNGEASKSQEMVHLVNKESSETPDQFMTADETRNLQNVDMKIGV
sequence,measurement,setting,value
"KEQWFGNRWHEGYR [SEQ ID NO: 6, human CD44v6 14mer peptide]","Tumor angiogenesis (CD31 staining, vessel number and vessel size)",L3.6pl cells; orthotopic L3.6pl tumors,decreased angiogenesis as exemplified by a reduced vessel number and vessel size
same,Metastasis formation (liver),L3.6pl cells; [4],completely inhibited metastasis formation within the liver
same,Outgrowth of the primary tumor in the pancreas,L3.6pl cells; [4],strongly repressed
same,Met activation in the tumor (phospho-Met immunofluorescence),"L3.6pl cells; orthotopic L3.6pl, 20 μg i.p. three times per week for three weeks",completely repressed Met activation
same,EGF-induced activation of the ErbB receptors (Erk phosphorylation),CD44v6 [1],blocking of Erk phosphorylation
same,EGF-induced activation of the ErbB receptors (Erk phosphorylation),CD44v6 [1]; listed as CD44v6-specific peptide,could be blocked
same,Erk phosphorylation upon TGFα induction,"CD44v6 [1]; MCF7, TGFα 20 ng/ml",not upon TGFα induction
same,EGF-induced activation of the ErbB receptors (Erk phosphorylation),CD44v6 [2],could be blocked
same,HGF-induced activation of downstream target Erk,CD44v6 [3]; peptide before induction with HGF,able to prevent activation
same,HGF-induced activation of Met,"CD44v6 [3]; starved, peptide 10 min 37° C., HGF 25 ng/ml",able to prevent activation
